Experiments:
FAAH [1] = target: T1, FAAH (Mus musculus, UniProt O08914); assay: In vivo FAAH inhibition after oral dosing, remaining activity in brain homogenate (BRh, central nervous tissue); parameters: species or system NMRI mice; settings: brain homogenate, low value = strong inhibitor; for In Vivo BRh 3 mg · kg · 8 h (remaining FAAH activity): 3 mg/kg oral; for In Vivo BRh 3 mg·kg 8 h (remaining FAAH activity, % of control): 8 h after dosing
T1 construct: A fragment of liver, left lung lobe and brain without cerebellum were removed; from tissue; host or cells: male NMRI mice; brain (without cerebellum) and liver homogenates
T1 sequence (O08914 1-579): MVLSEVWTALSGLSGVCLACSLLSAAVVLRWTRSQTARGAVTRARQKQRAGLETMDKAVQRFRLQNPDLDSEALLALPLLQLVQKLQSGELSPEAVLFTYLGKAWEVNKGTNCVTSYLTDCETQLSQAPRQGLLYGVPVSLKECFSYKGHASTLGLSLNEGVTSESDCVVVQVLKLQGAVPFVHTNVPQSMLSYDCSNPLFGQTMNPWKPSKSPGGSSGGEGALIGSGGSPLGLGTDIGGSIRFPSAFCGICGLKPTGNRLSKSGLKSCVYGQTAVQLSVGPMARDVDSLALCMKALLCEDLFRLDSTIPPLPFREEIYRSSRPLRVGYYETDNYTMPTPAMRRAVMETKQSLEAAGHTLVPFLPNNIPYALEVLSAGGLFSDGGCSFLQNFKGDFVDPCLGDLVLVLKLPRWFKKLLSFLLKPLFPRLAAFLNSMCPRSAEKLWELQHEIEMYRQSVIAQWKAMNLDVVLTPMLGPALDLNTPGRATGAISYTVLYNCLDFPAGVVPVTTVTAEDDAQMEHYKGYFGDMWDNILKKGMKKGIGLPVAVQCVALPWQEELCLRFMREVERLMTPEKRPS
Method: (§1) The in vivo test was performed according to the protocol described below. BRh indicates inhibition in central nervous tissue and LVh indicates inhibition in peripheral tissue, in this case liver.
(§2) The animals used for experiments were male NMRI mice (weighing 27-44 g) obtained from Interfauna Ibérica (Spain). Mice were kept 5 per cage, under controlled environmental conditions (12 hr light/dark cycle and room temperature 22±1° C.). Food and tap water were allowed ad libitum and the experiments were all carried out during daylight hours.
(§3) Animals were administered 30 mg/kg or 3 mg/kg compounds of the invention via oral route (8 ml/kg; compound suspended in 0.5% carboxymethylcellulose (CMC) or solubilized in water) or vehicle (controls) using animal feeding stainless steel curve needles (Perfectum, U.S.A.). Fifteen minutes before sacrifice animal were anesthetized with pentobarbital 60 mg/kg administered intraperitoneally. A fragment of liver, left lung lobe and brain without cerebellum were removed and put in plastic vials containing membrane buffer (3 mM MgCl2, 1 mM EDTA, 50 mM Tris HCl pH 7.4). Tissues were stored at −30° C. until analysis.
(§4) Animals were always fasted overnight before administration of compounds except for time points of >18 h, where food was removed on the morning of day of administration and the compound was administered in the afternoon of the same day. Animals were then given water but nothing else.
(§5) Tissues were thawed on ice and were homogenized in 10 volumes of membrane buffer (3 mM MgCl2, 1 mM EDTA, 50 mM Tris HCl pH 7.4) with either Potter-Elvejhem (brains—8 strokes at 500 rpm) or Heidolph Diax (livers—2 strokes at position 5 for 20 sec with 30 sec pauses).
(§6) Total protein in tissues was determined with the BioRad Protein Assay (BioRad) using a standard curve of BSA (50-250 μg/ml).
(§7) Reaction mix (total volume of 200 μl) contained: […] (2 μM AEA+5 nM ^3H-AEA), 0.1% fatty acid free BSA, 15 μg (brain), 5 μg (liver) or 50 μg (lung) protein, in 1 mM EDTA, 10 mM Tris pH 7.6. After a […] pre-incubation period at 37° C., reaction was started by the addition of the substrate solution (cold AEA+radiolabelled AEA+BSA). Reaction was carried out for 10 min (brain and lung) or […] (liver) before termination by the addition of 400 μl activated charcoal suspension (8 g charcoal in 32 ml 0.5 M HCl in continuous agitation). After a […] incubation period at room temperature with agitation, charcoal was sedimented by centrifugation in microfuge (10 min at 13000 rpm). 200 μl of the supernatant were added to 800 μl Optiphase Supermix scintillation cocktail previously distributed in 24-well plates. Counts per minute (cpm) were determined in a MicrobetaTriLux scintillation counter.
(§8) In each assay blanks (without protein) were prepared.
(§9) The percentage of remaining enzymatic activity was calculated in respect to controls and after blank subtraction.

FAAH [2] = target: T1, FAAH; assay: In vivo FAAH inhibition after oral dosing, remaining activity in liver homogenate (LVh, peripheral tissue); parameters: species or system NMRI mice; settings: liver homogenate, low value = strong inhibitor; for In Vivo LVh 3 mg · kg · 8 h (remaining FAAH activity): 3 mg/kg oral; for In Vivo LVh 3 mg·kg 8 h (remaining FAAH activity, % of control): 8 h after dosing
Method: as §1, §2, §3, §4, §5, §6, §7, §8, §9

| SMILES | In Vivo BRh 3 mg · kg · 8 h (remaining FAAH activity) (FAAH [1]) | In Vivo LVh 3 mg · kg · 8 h (remaining FAAH activity) (FAAH [2]) | In Vivo BRh 3 mg·kg 8 h (remaining FAAH activity, % of control) (FAAH [1]) | In Vivo LVh 3 mg·kg 8 h (remaining FAAH activity, % of control) (FAAH [2]) |
| --- | --- | --- | --- | --- |
| CN(C(=O)n1cnc(-c2cccc(-c3cccc(C(N)=O)c3)c2)c1)C1CCN(Cc2ccccc2)CC1 [Compound 550, N-(1-benzylpiperidin-4-yl)-4-(3′-carbamoylbiphenyl-3-yl)-N-methyl-1H-imidazole-1-carboxamide] | 94.3 % of control | 5.7 % of control | – | – |
| CCCN1CCC(N(C)C(=O)n2cnc(-c3cccc(C(=O)NO)c3)c2)CC1 [Compound 552, 4-(3-(hydroxycarbamoyl)phenyl)-N-methyl-N-(1-propylpiperidin-4-yl)-1H-imidazole-1-carboxamide] | 90.2 % of control | 45 % of control | – | – |
| CN(C(=O)n1cnc(-c2cccc(NC(=N)N)c2)c1)C1CCCCC1.Cl [Compound 553, N-cyclohexyl-4-(3-guanidinophenyl)-N-methyl-1H-imidazole-1-carboxamide hydrochloride] | 72.3 % of control | 15.4 % of control | – | – |
| Br.CCN1CCC(N(C)C(=O)n2cnc(-c3ccc(F)c(O)c3)c2)CC1 [Compound 561, N-(1-ethylpiperidin-4-yl)-4-(4-fluoro-3-hydroxyphenyl)-N-methyl-1H-imidazole-1-carboxamide hydrobromide] | 82.2 % of control | 78.6 % of control | – | – |
| CN(C(=O)n1cnc(-c2cccc(C(=O)NO)c2)c1)[C@H]1CC[C@H](O)CC1 [Compound 566, 4-(3-(hydroxycarbamoyl)phenyl)-N-((1r,4r)-4-hydroxycyclohexyl)-N-methyl-1H-imidazole-1-carboxamide] | 88.5 % of control | 69.8 % of control | – | – |
| COc1ccc(-c2cn(C(=O)N3COCC3(C)C)cn2)cc1N [Compound no. 356, (4-(3-amino-4-methoxyphenyl)-1H-imidazol-1-yl)(4,4-dimethyloxazolidin-3-yl)methanone] | – | – | 6.5 % of control | 9.4 % of control |
| CC1(C)COCN1C(=O)n1cnc(-c2ccc(O)c(N)c2)c1.Cl [Compound no. 358, (4-(3-amino-4-hydroxyphenyl)-1H-imidazol-1-yl)(4,4-dimethyloxazolidin-3-yl)methanone hydrochloride] | – | – | 117.1 % of control | 81.2 % of control |
| CC1(C)COCN1C(=O)n1nnc2cccnc21 [Compound no. 368, (3H-[1,2,3]triazolo[4,5-b]pyridin-3-yl)(4,4-dimethyloxazolidin-3-yl)methanone] | – | – | 4.9 % of control | 9.6 % of control |

Results, then the molecule that gave them:

| In Vivo BRh 3 mg · kg · 8 h (remaining FAAH activity) (FAAH [1]) | In Vivo LVh 3 mg · kg · 8 h (remaining FAAH activity) (FAAH [2]) | In Vivo BRh 3 mg·kg 8 h (remaining FAAH activity, % of control) (FAAH [1]) | In Vivo LVh 3 mg·kg 8 h (remaining FAAH activity, % of control) (FAAH [2]) | SMILES |
| --- | --- | --- | --- | --- |
| 85.2 % of control | 3.8 % of control | – | – | CN(C(=O)n1cnc(-c2ccc(-c3noc(=O)[nH]3)cc2)c1)C1CCCCC1 [Compound 551, N-cyclohexyl-N-methyl-4-(4-(5-oxo-4,5-dihydro-1,2,4-oxadiazol-3-yl)phenyl)-1H-imidazole-1-carboxamide] |
| 102.2 % of control | 85.6 % of control | – | – | CCCN1CCC(N(C)C(=O)n2cnc(-c3ccc(O)c(C(N)=O)c3)c2)CC1 [Compound 554, 4-(3-carbamoyl-4-hydroxyphenyl)-N-methyl-N-(1-propylpiperidin-4-yl)-1H-imidazole-1-carboxamide] |
| 83.1 % of control | 91.1 % of control | – | – | CN(C(=O)n1cnc(-c2cccnc2)c1)C1CCN(CC(=O)O)CC1 [Compound 558, 2-(4-(N-methyl-4-(pyridin-3-yl)-1H-imidazole-1-carboxamido)piperidin-1-yl)acetic acid] |
| – | – | 95.3 % of control | 5.7 % of control | CN(C(=O)n1cnc(-c2ccc(S(N)(=O)=O)cc2)c1)C1CCCCC1 [Compound no. 376, N-cyclohexyl-N-methyl-4-(4-sulfamoylphenyl)-1H-imidazole-1-carboxamide] |
| – | – | 77.3 % of control | 51.3 % of control | CN(C(=O)n1cnc(-c2ccc(-c3nn[nH]n3)cc2)c1)C1CCCCC1 [Compound no. 380, 4-(4-(2H-tetrazol-5-yl)phenyl)-N-cyclohexyl-N-methyl-1H-imidazole-1-carboxamide] |
| – | – | 66.8 % of control | 16.3 % of control | CN(C(=O)n1cnc(-c2ccc(/C(N)=N/O)cc2)c1)C1CCCCC1 [Compound no. 406, (Z)—N-cyclohexyl-4-(4-(N′-hydroxycarbamimidoyl)phenyl)-N-methyl-1H-imidazole-1-carboxamide] |
| – | – | 109.1 % of control | 95.4 % of control | CN(C(=O)n1cnc(-c2ccc(S(=O)(=O)N3CCC(OCc4ccccc4)CC3)cc2)c1)C1CCCCC1 [Compound no. 415, 4-(4-(4-(benzyloxy)piperidin-1-ylsulfonyl)phenyl)-N-cyclohexyl-N-methyl-1H-imidazole-1-carboxamide] |
| – | – | 0.8 % of control | 1 % of control | COc1ccc(-c2cn(C(=O)N(C)C3CCN(Cc4ccccc4)CC3)cn2)cc1 [Compound no. 419, N-(1-benzylpiperidin-4-yl)-4-(4-methoxyphenyl)-N-methyl-1H-imidazole-1-carboxamide] |
| – | – | 1.7 % of control | 2.7 % of control | CN(C(=O)n1cnc(-c2ccc(S(C)(=O)=O)cc2)c1)C1CCCCC1 [Compound no. 422, N-cyclohexyl-N-methyl-4-(4-(methylsulfonyl)phenyl)-1H-imidazole-1-carboxamide] |
| – | – | 90 % of control | 2.1 % of control | CN(C(=O)n1cnc(-c2cccc(C(=O)NO)c2)c1)C1CCN(Cc2ccccc2)CC1 [Compound no. 423, N-(1-benzylpiperidin-4-yl)-4-(3-(hydroxycarbamoyl)phenyl)-N-methyl-1H-imidazole-1-carboxamide] |
| – | – | 1 % of control | 0.5 % of control | CN(C(=O)n1cnc(-c2cccc(C(=O)NO)c2)c1)C1CCCCC1 [Compound no. 424, N-cyclohexyl-4-(3-(hydroxycarbamoyl)phenyl)-N-methyl-1H-imidazole-1-carboxamide] |
| – | – | 111.4 % of control | 104.6 % of control | CN(C(=O)n1cnc(-c2ccc(NCc3ccccc3)c([N+](=O)[O-])c2)c1)C1CCCCC1 [Compound no. 425, 4-(4-(benzylamino)-3-nitrophenyl)-N-cyclohexyl-N-methyl-1H-imidazole-1-carboxamide] |

Source: patent US9353082B2, “Pharmaceutical compounds” (BIAL—PORTELA & CA, S.A., priority 2008, dated 2016)
